Common to all, as to assay type: cell-based
Experiment [1] concerns Bacillus subtilis ATCC 6633. The experiment is described as follows: MIC, two-fold dilution method, Bacillus subtilis ATCC 6633. The following applies: 10^6 CFU per ml, 37° C., 18 to 20 hours; for MIC: ATCC6633, Muller Hinton Broth, read-out: Antibacterial Activity (MIC); for Antibacterial Activity (MIC): Muller Hinton Broth. How it is done:
(§1) In order to illustrate the usefulness of the invented compounds, the minimal inhibitory concentrations-(MIC) thereof against standard strains were determined and compared with Cefotaxime, a known compound. Also, the in vitro antibacterial activity was determined by a two-fold dilution method as described below: That is, the two-fold serial dilutions of the compound were made and dispersed in Muller Hinton Broth medium. Standard test strain which had the 10^6 CFU per ml was inoculated on the medium, and was incubated at 37° C. for 18 to 20 hours.

For experiment [2], the system named is Staphylococcus aureus ATCC 65389. The experiment is described as follows: MIC, two-fold dilution method, Staphylococcus aureus ATCC 65389. The following applies: 10^6 CFU per ml, 37° C., 18 to 20 hours; for MIC: ATCC65389, Muller Hinton Broth, read-out: Antibacterial Activity (MIC); for Antibacterial Activity (MIC): Muller Hinton Broth. On the procedure: as §1

Experiment [3] deals with Staphylococcus epidermidis ATCC 12228. The experiment is described as follows: MIC, two-fold dilution method, Staphylococcus epidermidis ATCC 12228. The following applies: 10^6 CFU per ml, 37° C., 18 to 20 hours; for MIC: ATCC12228, Muller Hinton Broth, read-out: Antibacterial Activity (MIC); for Antibacterial Activity (MIC): Muller Hinton Broth. On the procedure: as §1
The subject of experiment [4] is Streptococcus faecalis ATCC 10541. The experiment is described as follows: MIC, two-fold dilution method, Streptococcus faecalis ATCC 10541. The following applies: 10^6 CFU per ml, 37° C., 18 to 20 hours; for MIC: Enterococcus faecalis, ATCC10541, Muller Hinton Broth, read-out: Antibacterial Activity (MIC); for Antibacterial Activity (MIC): Muller Hinton Broth. How it is done:
as §1

The test system of experiment [5] is Pseudomonas aeurginosa NCTC 10490. The experiment is described as follows: MIC, two-fold dilution method, Pseudomonas aeurginosa NCTC 10490. The following applies: 10^6 CFU per ml, 37° C., 18 to 20 hours; for MIC: NCTC10490, Muller Hinton Broth, read-out: Antibacterial Activity (MIC); for Antibacterial Activity (MIC): Muller Hinton Broth. How it is done:
as §1

For experiment [6], the system named is Esherichia coli ATCC 25922. The experiment in a line: MIC, two-fold dilution method, Esherichia coli ATCC 25922. The following applies: Muller Hinton Broth, 10^6 CFU per ml, 37° C., 18 to 20 hours, read-out: Antibacterial Activity (MIC). On the procedure:
as §1

In experiment [7] the test system is Klebsiella pneumoniae ATCC 10031. The experiment in a line: MIC, two-fold dilution method, Klebsiella pneumoniae ATCC 10031. The following applies: 10^6 CFU per ml, 37° C., 18 to 20 hours; for MIC: ATCC10031, Muller Hinton Broth, read-out: Antibacterial Activity (MIC); for Antibacterial Activity (MIC): Muller Hinton Broth. How it is done:
as §1

These results are taken from US5663331A, “Cephalosporin compounds” (Il-Dong Pharm. Co., Ltd., priority 1992, dated 1997).

Each structure is given as a SMILES string. ≈ marks a conversion by molar mass, not a printed value.

As for `CCN1CCN(c2cc3c(cc2F)c(SCC2=C(C(=O)[O-])N4C(=O)C(NC(=O)/C(=N\OC)c5csc(N)n5)C4SC2)cc[n+]3C2CC2)CC1` (stereo not drawn) [Compound I-7, 7-[(Z)-2-(2-aminothiazol-4-yl)-2-(methoxyimino)acetamido]-3-3-[1-cyclopropyl-6-fluoro-7-(1-ethylpiperazinyl)quinolinium-4-yl]-thiomethyl-3-cephem-4-carboxylate], the MIC – broadly, the lowest concentration found to suppress growth – in experiment [1] was found to be 0.2 mg/L (≈ 0.275 µM); in experiment [2], 0.39 mg/L (≈ 0.537 µM); in experiment [3] it was 0.2 mg/L (≈ 0.275 µM); in experiment [4] it was 0.05 mg/L (≈ 0.0688 µM); in experiment [5], 0.39 mg/L (≈ 0.537 µM); in experiment [6], 0.78 mg/L (≈ 1.07 µM). Also, the MIC in experiment [7] was 0.05 mg/L (≈ 0.0688 µM).

For `C=CCO/N=C(\C(=O)NC1C(=O)N2C(C(=O)[O-])=C(CSc3cc[n+](CC=C)c4cc(N5CCN(CC)CC5)c(F)cc34)CSC12)c1csc(N)n1` (stereo not drawn) [Compound I-35, 7-[(Z)-2-(2-aminothiazol-4-yl)-2-(allyloxyimino)acetamido]-3-[1-allyl-6-fluoro-7-(1-ethylpiperazinyl)quinolinium-4-yl]thiomethyl-3-cephem-4-carboxylate], the MIC in experiment [1] turned out to be 0.39 mg/L (≈ 0.518 µM); in experiment [2], 0.78 mg/L (≈ 1.04 µM); in experiment [3], 0.78 mg/L (≈ 1.04 µM); in experiment [4], 0.39 mg/L (≈ 0.518 µM); in experiment [5] it was 0.78 mg/L (≈ 1.04 µM); in experiment [6], 1.56 mg/L (≈ 2.07 µM). Further, the MIC in experiment [7] turned out to be 0.78 mg/L (≈ 1.04 µM).

For `C=CC[n+]1ccc(SCC2=C(C(=O)[O-])N3C(=O)C(NC(=O)/C(=N\OC)c4csc(N)n4)C3SC2)c2cc(F)c(N3CCN(CC)CC3)cc21` (stereo not drawn) [Compound I-15, 7-[(Z)-2(2-aminothiazol-4-yl)-2-(methoxyimino)acetamido]-3-[1-allyl-6-fluoro-7-(1-ethylpiperazinyl)quinolinium-4-yl]thiomethyl-3-cephem-4-carboxylate], the MIC stood at 0.1 mg/L (≈ 0.138 µM) in experiment [1]; 0.2 mg/L (≈ 0.275 µM) in experiment [2]; 0.78 mg/L (≈ 1.07 µM) in experiment [3]; 0.39 mg/L (≈ 0.537 µM) in experiment [4]; 1.56 mg/L (≈ 2.15 µM) in experiment [5]; 1.56 mg/L (≈ 2.15 µM) in experiment [6]. The MIC in experiment [7] is 0.39 mg/L (≈ 0.537 µM).

As for `C#CCO/N=C(\C(=O)NC1C(=O)N2C(C(=O)[O-])=C(CSc3cc[n+](CC)c4cc(N5CCN(CC)CC5)c(F)cc34)CSC12)c1csc(N)n1` (stereo not drawn) [Compound I-47, 7-[(Z)-2-(2-aminothiazol-4-yl)-2-(propargyloxyimino)acetamido]-3-[1-ethyl-6-fluoro-7-(1-ethylpiperazinyl)quinolinium-4-yl]thiomethyl-3-cephem-4-carboxylate], the MIC was found to be 0.2 mg/L (≈ 0.271 µM) in experiment [1]; 0.2 mg/L (≈ 0.271 µM) in experiment [2]; 0.78 mg/L (≈ 1.06 µM) in experiment [3]; 0.1 mg/L (≈ 0.135 µM) in experiment [4]; 1.56 mg/L (≈ 2.11 µM) in experiment [5]; 6.25 mg/L (≈ 8.46 µM) in experiment [6]. Moreover, the MIC in experiment [7] is 1.56 mg/L (≈ 2.11 µM).

With `CO/N=C(\C(=O)NC1C(=O)N2C(C(=O)[O-])=C(CSc3cc[n+](C)c4cc(-n5cnc(C)c5)c(F)cc34)CSC12)c1csc(N)n1` (stereo not drawn) [Compound I-18, 7-[(Z)-2-(2-aminothiazol-4-yl)-2-(methoxyimino)acetamido]-3-[1-methyl-6-fluoro-7-(4-methylimidazolyl)quinolinium-4-yl]thiomethyl-3-cephem-4-carboxylate], the “Antibacterial Activity (MIC)” value in experiment [1] was 0.1 mg/L; in experiment [2], 0.2 mg/L; in experiment [3], 0.2 mg/L; in experiment [4], 0.2 mg/L; in experiment [5] it was 1.56 mg/L.

Take `C#CCO/N=C(\C(=O)NC1C(=O)N2C(C(=O)[O-])=C(CSc3cc[n+](C)c4cc(N5CCN(C)CC5)c(F)cc34)CSC12)c1csc(N)n1` (stereo not drawn) [Compound I-38, 7-[(Z)-2-(2-aminothiazol-4-yl)-2-(propargyloxyimino)acetamido]-3-[1-methyl-6-fluoro-7-(N-methylpiperazinyl)quinolinium-4-yl]thiomethyl-3-cephem-4-carboxylate]: the MIC was found to be 0.78 mg/L (≈ 1.1 µM) in experiment [1]; 0.78 mg/L (≈ 1.1 µM) in experiment [2]; 0.39 mg/L (≈ 0.549 µM) in experiment [3]; 0.2 mg/L (≈ 0.281 µM) in experiment [4]; 0.78 mg/L (≈ 1.1 µM) in experiment [5]; 3.13 mg/L (≈ 4.4 µM) in experiment [7].

On to `C#CCO/N=C(\C(=O)NC1C(=O)N2C(C(=O)[O-])=C(CSc3cc[n+](C)c4cc(N5CCN(CC)CC5)c(F)cc34)CSC12)c1csc(N)n1` (stereo not drawn) [Compound I-39], for which the minimal inhibitory concentration (MIC) in experiment [1] was determined as 0.2 mg/L (≈ 0.276 µM); in experiment [2], 0.39 mg/L (≈ 0.538 µM); in experiment [3] it was 0.2 mg/L (≈ 0.276 µM); in experiment [4] it was 0.2 mg/L (≈ 0.276 µM); in experiment [5], 0.2 mg/L (≈ 0.276 µM); in experiment [7] it was 0.78 mg/L (≈ 1.08 µM).

As for `CC[n+]1ccc(SCC2=C(C(=O)[O-])N3C(=O)C(NC(=O)/C(=N\OC(C)(C)C(=O)O)c4csc(N)n4)[C@H]3SC2)c2cc(F)c(-n3ccnc3)cc21` (stereo partly drawn) [Compound I-65, 7-[(Z)-2-(2-aminothiazol-4-yl)-2-(2-carboxyprop-2-oxyimino)acetamido]-3-(1-ethyl-6-fluoro-7-imidazolylquinolinium-4-yl)thiomethyl-3-cephem-4-carboxylate], the “Antibacterial Activity (MIC)” value in experiment [1] came out at 0.39 mg/L; in experiment [2], 1.56 mg/L; in experiment [3], 1.56 mg/L; in experiment [4], 0.39 mg/L; in experiment [5], 1.56 mg/L; in experiment [7], 1.56 mg/L.

In the case of `CC[n+]1ccc(SCC2=C(C(=O)[O-])N3C(=O)C(NC(=O)/C(=N\OC(C)(C)C(=O)O)c4csc(N)n4)[C@H]3SC2)c2cc(F)c(N3CCNCC3)cc21` (stereo partly drawn) [Compound I-53, 7-[(Z)-2-(2-aminothiazol-4-yl)-2-(2-carboxyprop-2-oxyimino)acetamido]-3-(1-ethyl-6-fluoro-7-piperazinylquinolinium-4-yl)thiomethyl-3-cephem-4-carboxylate], the “Antibacterial Activity (MIC)” value came out at 0.39 mg/L in experiment [1]; 3.13 mg/L in experiment [2]; 1.56 mg/L in experiment [3]; 0.39 mg/L in experiment [4]; 1.56 mg/L in experiment [5]; 1.56 mg/L in experiment [7].

In the case of `C#CCO/N=C(\C(=O)NC1C(=O)N2C(C(=O)[O-])=C(CSc3cc[n+](C)c4cc(N5CCNCC5C)c(F)cc34)CS[C@H]12)c1csc(N)n1` (stereo partly drawn) [Compound I-40, 7-[(Z)-2-(2-aminothiazol-4-yl)-2-(propargyloxyimino)acetamido]-3-[1-methyl-6-fluoro-7-(2-methylpiperazinyl)quinolinium-4-yl]thiomethyl-3-cephem-4-carboxylate], the “Antibacterial Activity (MIC)” value in experiment [1] was 0.2 mg/L; in experiment [2], 0.39 mg/L; in experiment [3] it was 0.1 mg/L; in experiment [4], 0.2 mg/L; in experiment [5], 0.2 mg/L; in experiment [7], 0.78 mg/L.

Regarding `C=CCO/N=C(\C(=O)NC1C(=O)N2C(C(=O)[O-])=C(CSc3cc[n+](C4CC4)c4cc(N5CCN(CC)CC5)c(F)cc34)CSC12)c1csc(N)n1` (stereo not drawn) [Compound I-27], the MIC in experiment [1] was determined as 0.2 mg/L (≈ 0.266 µM); in experiment [2], 0.2 mg/L (≈ 0.266 µM); in experiment [3] it was 0.2 mg/L (≈ 0.266 µM); in experiment [4] it was 0.2 mg/L (≈ 0.266 µM); in experiment [5], 0.78 mg/L (≈ 1.04 µM); in experiment [7], 0.39 mg/L (≈ 0.518 µM).

Turning to `C#CCO/N=C(\C(=O)NC1C(=O)N2C(C(=O)[O-])=C(CSc3cc[n+](C)c4cc(N5CCNCC5)c(F)cc34)CS[C@H]12)c1csc(N)n1` (stereo partly drawn) [Compound I-37, 7-[(Z)-2-(2-aminothiazol-4-yl)-2-(propargyloxyimino)acetamido]-3-(1-methyl-6-fluoro-7-piperazinylquinolinium-4-yl)thiomethyl-3-cephem-4-carboxylate], the MIC came out at 0.2 mg/L (≈ 0.287 µM) in experiment [1]; 0.39 mg/L (≈ 0.56 µM) in experiment [2]; 0.78 mg/L (≈ 1.12 µM) in experiment [3]; 0.2 mg/L (≈ 0.287 µM) in experiment [4]; 0.2 mg/L (≈ 0.287 µM) in experiment [5]; 0.78 mg/L (≈ 1.12 µM) in experiment [7].

In the case of `C=CCO/N=C(\C(=O)NC1C(=O)N2C(C(=O)[O-])=C(CSc3cc[n+](C4CC4)c4cc(N5CCNCC5C)c(F)cc34)CS[C@H]12)c1csc(N)n1` (stereo partly drawn) [Compound I-28, 7-[(Z)-2-(2-aminothiazol-4-yl)-2-(allyloxyimino)acetamido]-3-[1-cyclopropyl-6-fluoro-7-(2-methylpiperazinyl)quinolinium-4-yl]thiomethyl-3-cephem-4-carboxylate], the “Antibacterial Activity (MIC)” value turned out to be 0.39 mg/L in experiment [1]; 0.2 mg/L in experiment [2]; 0.2 mg/L in experiment [3]; 0.2 mg/L in experiment [4]; 1.56 mg/L in experiment [5]; 0.78 mg/L in experiment [7].
